In patent US9199962B2, “Substituted azaheterocycles for the treatment of cancer” (Merck Patent GmbH, priority 2011, dated 2015):

Each compound was assayed against T1, GST-FAK (N-terminal GST fusion with truncated human FAK (376-1052 (end) amino acids)) (Homo sapiens, UniProt Q05397) (assay: Biochemical enzyme assay for FAK activity (Caliper LC3000 mobility shift)). Conditions: Table 1; 100 uM ATP; read-out: FAK IC50.
T1 construct: truncated human FAK (376-1052 (end) amino acids)
Protocol: 1. Biochemical Enzyme Assays for FAK Activity
The FAK assays described here are performed on two Caliper Life Sciences systems, the LC3000 and the EZ Reader II. These provide data on enzyme activity via measurement of the relative amounts of phosphorylated or unphosphorylated fluorescently labelled substrate peptide at the end of an enzymatic reaction. These different states of peptide are resolved by applying a potential difference across the sample. The presence of the charged phosphate group on the product (as opposed to the substrate) causes different peptide mobility between the two peptides. This is visualized by excitation of the fluorescent label on the substrate and product peptides and represented as peaks within the analysis software.
In order to measure inhibitor activity of FAK, inhibitors in the Caliper Life Sciences LC3000, a TTP Mosquito liquid handling instrument is used to place 0.25 ul of the appropriate concentration of inhibitor in 100% DMSO (for a dose response curve calculation) into each well of a 384-well plate. To this reaction components are added to a final volume of 25 ul: • 0.067 ng/ul GST-FAK (N-terminal GST fusion with truncated human FAK (376-1052 (end) amino acids)) • 100 uM ATP • 1 mM DTT • 1 mM MgCl2 • 1 uM substrate peptide (sequence FITC-KGWMEDYDYVHLQGKK-(CONH2)SEQ ID NO: 1)) • 1 mM FERM peptide (sequence NH2-GATQSFIIR-COOH (SEQ ID NO: 2)) • 100 mM HEPES pH 7.5 • 0.015% Brij-35
The reaction is incubated for 90 min at 25 C, and then stopped by the addition of 70 ul of Stop buffer (100 mM HEPES pH 7.5, 0.015% Brij-35, 10 mM EDTA).
The plate is read on a Caliper LC 3000 in an Off-Chip mobility shift assay format, using the following parameters for a 12-sipper chip: screening pressure—1.9 psi, upstream voltage—3000, downstream voltage—700. These conditions cause unphosphorylated substrate and phosphorylated product peptide to resolve as separate peaks allowing direct measurement of percentage of conversion of substrate to product. The percent conversion can be plotted against concentration of inhibitor to produce a sigmoid dose response curve, from which an IC50 can be calculated using XLFit for Microsoft Excel.

T1 sequence (Q05397 376-1052): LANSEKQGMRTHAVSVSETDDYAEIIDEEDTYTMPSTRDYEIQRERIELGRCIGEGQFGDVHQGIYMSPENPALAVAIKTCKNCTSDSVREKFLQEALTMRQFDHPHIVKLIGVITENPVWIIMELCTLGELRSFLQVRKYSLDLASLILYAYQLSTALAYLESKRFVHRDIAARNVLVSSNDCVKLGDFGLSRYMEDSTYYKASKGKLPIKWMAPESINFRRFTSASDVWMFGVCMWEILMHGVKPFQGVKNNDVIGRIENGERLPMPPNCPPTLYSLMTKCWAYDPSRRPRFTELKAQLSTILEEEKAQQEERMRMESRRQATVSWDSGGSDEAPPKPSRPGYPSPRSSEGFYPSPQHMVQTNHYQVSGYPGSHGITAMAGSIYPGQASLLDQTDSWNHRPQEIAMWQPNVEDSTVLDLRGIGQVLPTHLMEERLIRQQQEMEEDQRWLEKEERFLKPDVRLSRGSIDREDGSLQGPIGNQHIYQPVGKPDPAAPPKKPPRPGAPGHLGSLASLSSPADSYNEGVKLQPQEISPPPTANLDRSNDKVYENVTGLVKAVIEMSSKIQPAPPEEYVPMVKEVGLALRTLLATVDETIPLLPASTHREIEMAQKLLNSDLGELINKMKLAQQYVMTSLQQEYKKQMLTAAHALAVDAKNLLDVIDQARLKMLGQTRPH

IC50 [µM] | SMILES
1 to 10 | COc1cncc(-c2nccc(NCc3ccc(OC)c(F)c3F)n2)c1 [Compound 1, (2,3-Difluoro-4-methoxy-benzyl)-[2-(5-methoxy-pyridin-3-yl)-pyrimidin-4-yl]-amine]
> 10 | COc1cncc(-c2nccc(NCc3cccc(Oc4cnccn4)c3)n2)c1 [Compound 3, [2-(5-Methoxy-pyridin-3-yl)-pyrimidin-4-yl]-[3-(pyrazin-2-yloxy)-benzyl]-amine]
> 10 | COc1cncc(-c2nccc(NCc3ccc(N4CCOCC4)cc3)n2)c1 [Compound 4, [2-(5-Methoxy-pyridin-3-yl)-pyrimidin-4-yl]-(4-morpholin-4-yl-benzyl)-amine]
1 to 10 | COc1cncc(-c2nccc(NCc3cccc(-n4cccn4)c3)n2)c1 [Compound 5, [2-(5-Methoxy-pyridin-3-yl)-pyrimidin-4-yl]-(3-pyrazol-1-yl-benzyl)-amine]
> 10 | COc1cncc(-c2nccc(NCc3ccc4c(c3)OCCO4)n2)c1 [Compound 6, (2,3-Dihydro-benzo[1,4]dioxin-6-ylmethyl)-[2-(5-methoxy-pyridin-3-yl)-pyrimidin-4-yl]-amine]
> 10 | Fc1cncc(-c2nccc(NCc3cccc(Oc4cnccn4)c3)n2)c1 [Compound 9, [2-(5-Fluoro-pyridin-3-yl)-pyrimidin-4-yl]-[3-(pyrazin-2-yloxy)-benzyl]-amine]
> 10 | Fc1cncc(-c2nccc(NCc3ccc4c(c3)OCCO4)n2)c1 [Compound 12, (2,3-Dihydro-benzo[1,4]dioxin-6-ylmethyl)-[2-(5-fluoro-pyridin-3-yl)-pyrimidin-4-yl]-amine]
> 10 | O=C(c1cncc(-c2nccc(NCc3ccc(N4CCOCC4)cc3)n2)c1)N1CCOCC1 [Compound 14, Morpholin-4-yl-{5-[4-(4-morpholin-4-yl-benzylamino)-pyrimidin-2-yl]-pyridin-3-yl}-methanone]
> 10 | O=C(c1cncc(-c2nccc(NCc3ccc4c(c3)OCCO4)n2)c1)N1CCOCC1 [Compound 15, (5-{4-[(2,3-Dihydro-benzo[1,4]dioxin-6-ylmethyl)-amino]-pyrimidin-2-yl}-pyridin-3-yl)-morpholin-4-yl-methanone]
> 10 | COc1cncc(-c2nccc(NCc3cccc4c3OC(C)(C)C4)n2)c1 [Compound 17, (2,2-Dimethyl-2,3-dihydro-benzofuran-7-ylmethyl)-[2-(5-methoxy-pyridin-3-yl)-pyrimidin-4-yl]-amine]
> 10 | CC1(C)Cc2cccc(CNc3ccnc(-c4cncc(Cl)c4)n3)c2O1 [Compound 18, [2-(5-Chloro-pyridin-3-yl)-pyrimidin-4-yl]-(2,2-dimethyl-2,3-dihydro-benzofuran-7-ylmethyl)-amine]
> 10 | Clc1cncc(-c2nccc(NCc3cccc(Oc4cnccn4)c3)n2)c1 [Compound 19, [2-(5-Chloro-pyridin-3-yl)-pyrimidin-4-yl]-[3-(pyrazin-2-yloxy)-benzyl]-amine]
1 to 10 | COc1ccc(CNc2ccnc(-c3cncc(F)c3)n2)c(F)c1F [Compound 21, (2,3-Difluoro-4-methoxy-benzyl)-[2-(5-fluoro-pyridin-3-yl)-pyrimidin-4-yl]-amine]
> 10 | O=C(c1cncc(-c2nccc(NCc3cccc(Oc4cnccn4)c3)n2)c1)N1CCOCC1 [Compound 23, Morpholin-4-yl-(5-{4-[3-(pyrazin-2-yloxy)-benzylamino]-pyrimidin-2-yl}-pyridin-3-yl)-methanone]
> 10 | Fc1ccc(Oc2ccc(CNc3ccnc(-c4cncc(C(F)(F)F)c4)n3)cc2)cc1 [Compound 25, [4-(4-Fluoro-phenoxy)-benzyl]-[2-(5-trifluoromethyl-pyridin-3-yl)-pyrimidin-4-yl]-amine]
> 10 | CC1(C)Cc2cccc(CNc3ccnc(-c4cncc(C(F)(F)F)c4)n3)c2O1 [Compound 26, (2,2-Dimethyl-2,3-dihydro-benzofuran-7-ylmethyl)-[2-(5-trifluoromethyl-pyridin-3-yl)-pyrimidin-4-yl]-amine]

More lines, now with the values behind:

SMILES | IC50 [µM]
COc1cncc(-c2nccc(NCc3ccc(Oc4ccc(F)cc4)cc3)n2)c1 [Compound 2, [4-(4-Fluoro-phenoxy)-benzyl]-[2-(5-methoxy-pyridin-3-yl)-pyrimidin-4-yl]-amine] | > 10
Fc1ccc(Oc2ccc(CNc3ccnc(-c4cncc(F)c4)n3)cc2)cc1 [Compound 7, [4-(4-Fluoro-phenoxy)-benzyl]-[2-(5-fluoro-pyridin-3-yl)-pyrimidin-4-yl]-amine] | > 10
CC1(C)Cc2cccc(CNc3ccnc(-c4cncc(F)c4)n3)c2O1 [Compound 8, (2,2-Dimethyl-2,3-dihydro-benzofuran-7-ylmethyl)-[2-(5-fluoro-pyridin-3-yl)-pyrimidin-4-yl]-amine] | > 10
Fc1cncc(-c2nccc(NCc3ccc(N4CCOCC4)cc3)n2)c1 [Compound 10, [2-(5-Fluoro-pyridin-3-yl)-pyrimidin-4-yl]-(4-morpholin-4-yl-benzyl)-amine] | > 10
Fc1cncc(-c2nccc(NCc3cccc(-n4cccn4)c3)n2)c1 [Compound 11, [2-(5-Fluoro-pyridin-3-yl)-pyrimidin-4-yl]-(3-pyrazol-1-yl-benzyl)-amine] | > 10
O=C(c1cncc(-c2nccc(NCc3ccc(Oc4ccc(F)cc4)cc3)n2)c1)N1CCOCC1 [Compound 13, (5-{4-[4-(4-Fluoro-phenoxy)-benzylamino]-pyrimidin-2-yl}-pyridin-3-yl)-morpholin-4-yl-methanone] | > 10
COc1cncc(-c2nccc(NCc3ccc(Cl)cc3F)n2)c1 [Compound 16, (4-Chloro-2-fluoro-benzyl)-[2-(5-methoxy-pyridin-3-yl)-pyrimidin-4-yl]-amine] | 0.1 to 1
Clc1cncc(-c2nccc(NCc3ccc(N4CCOCC4)cc3)n2)c1 [Compound 20, [2-(5-Chloro-pyridin-3-yl)-pyrimidin-4-yl]-(4-morpholin-4-yl-benzyl)-amine] | > 10
O=C(c1cncc(-c2nccc(NCc3ccc(Cl)cc3F)n2)c1)N1CCOCC1 [Compound 22, {5-[4-(4-Chloro-2-fluoro-benzylamino)-pyrimidin-2-yl]-pyridin-3-yl}-morpholin-4-yl-methanone] | > 10
COc1ccc(CNc2ccnc(-c3cncc(C(F)(F)F)c3)n2)c(F)c1F [Compound 24, (2,3-Difluoro-4-methoxy-benzyl)-[2-(5-trifluoromethyl-pyridin-3-yl)-pyrimidin-4-yl]-amine] | 1 to 10
FC(F)(F)c1cncc(-c2nccc(NCc3cccc(Oc4cnccn4)c3)n2)c1 [Compound 27, [3-(Pyrazin-2-yloxy)-benzyl]-[2-(5-trifluoromethyl-pyridin-3-yl)-pyrimidin-4-yl]-amine] | > 10
FC(F)(F)c1cncc(-c2nccc(NCc3ccc(N4CCOCC4)cc3)n2)c1 [Compound 28, (4-Morpholin-4-yl-benzyl)-[2-(5-trifluoromethyl-pyridin-3-yl)-pyrimidin-4-yl]-amine] | > 10
FC(F)(F)c1cncc(-c2nccc(NCc3cccc(-n4cccn4)c3)n2)c1 [Compound 29, (3-Pyrazol-1-yl-benzyl)-[2-(5-trifluoromethyl-pyridin-3-yl)-pyrimidin-4-yl]-amine] | 1 to 10
FC(F)(F)c1cncc(-c2nccc(NCc3ccc4c(c3)OCCO4)n2)c1 [Compound 30, (2,3-Dihydro-benzo[1,4]dioxin-6-ylmethyl)-[2-(5-trifluoromethyl-pyridin-3-yl)-pyrimidin-4-yl]-amine] | > 10
